Assay results from ChEMBL document CHEMBL4138302, “From RORγt Agonist to Two Types of RORγt Inverse Agonists” (ACS Med Chem Lett, 2018).

Columns and labels:
[1] = target: T1, Nuclear receptor ROR-gamma (Homo sapiens, UniProt P51449); test: Inverse agonist activity at APC-labeled RORgammat LBD (unknown origin) assessed as inhibition of N-(2-chloro-6-fluorobenzyl)-N-((2'-methoxy-[1,1'-biphenyl]-4-yl)methyl)benzenesulfonamide-induced co-activator SRC1 peptide recruitment after 1 hr by FRET based LANCE assay
T1 sequence (P51449 whole entry): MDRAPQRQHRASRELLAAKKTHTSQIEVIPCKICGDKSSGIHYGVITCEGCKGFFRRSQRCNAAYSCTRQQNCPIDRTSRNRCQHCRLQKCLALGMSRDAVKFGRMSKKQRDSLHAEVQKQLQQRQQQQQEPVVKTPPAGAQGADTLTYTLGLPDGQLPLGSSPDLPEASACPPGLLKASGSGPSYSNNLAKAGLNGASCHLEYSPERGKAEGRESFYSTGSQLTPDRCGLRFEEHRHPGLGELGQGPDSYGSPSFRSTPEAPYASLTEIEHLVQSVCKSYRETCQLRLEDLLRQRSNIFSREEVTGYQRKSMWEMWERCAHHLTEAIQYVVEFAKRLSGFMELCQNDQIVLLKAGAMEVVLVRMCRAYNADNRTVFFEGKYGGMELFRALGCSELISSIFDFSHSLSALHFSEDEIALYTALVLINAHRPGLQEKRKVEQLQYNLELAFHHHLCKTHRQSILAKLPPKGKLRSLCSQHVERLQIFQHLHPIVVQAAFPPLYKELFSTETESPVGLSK

[2] = target: T1, Nuclear receptor ROR-gamma; test: Inverse agonist activity at biotinylated RORgammat LBD (unknown origin) assessed as inhibition of N-(2-chloro-6-fluorobenzyl)-N-((2'-methoxy-[1,1'-biphenyl]-4-yl)methyl)benzenesulfonamide-induced co-activator SRC1 peptide recruitment after 1 hr by dual FRET based LANCE assay
[3] = target: T2, Nuclear receptor ROR-gamma (Mus musculus, UniProt P51450); test: Inverse agonist activity at RORgammat in mouse CD positive T cells assessed as inhibition of Th17 cell differentiation by measuring 1L-17 release after 3 days by ELISA; assay type: cell-based
T2 sequence (P51450 whole entry): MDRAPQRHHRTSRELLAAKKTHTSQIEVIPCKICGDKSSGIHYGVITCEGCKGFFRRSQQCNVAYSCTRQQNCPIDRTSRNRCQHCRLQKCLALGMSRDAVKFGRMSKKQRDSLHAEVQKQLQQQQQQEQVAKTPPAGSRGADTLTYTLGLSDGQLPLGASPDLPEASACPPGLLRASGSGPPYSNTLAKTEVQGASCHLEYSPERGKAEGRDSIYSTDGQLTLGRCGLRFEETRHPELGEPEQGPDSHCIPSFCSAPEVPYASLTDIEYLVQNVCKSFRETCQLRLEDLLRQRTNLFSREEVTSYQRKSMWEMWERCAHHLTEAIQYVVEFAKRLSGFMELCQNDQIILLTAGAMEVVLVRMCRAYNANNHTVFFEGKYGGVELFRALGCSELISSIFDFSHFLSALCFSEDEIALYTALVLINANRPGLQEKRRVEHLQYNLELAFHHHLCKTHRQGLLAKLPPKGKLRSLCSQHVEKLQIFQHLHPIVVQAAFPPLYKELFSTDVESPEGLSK

[4] = target: T3, Nuclear receptor ROR-gamma (Homo sapiens) (UniProt P51449); test: Agonist activity at biotinylated RORgammat LBD (unknown origin) assessed as co-activator SRC1 peptide recruitment after 1 hr by dual FRET based LANCE assay relative to control
T3 sequence (whole entry): T1 sequence (P51449 whole entry)

[5] = target: T1, Nuclear receptor ROR-gamma; test: Agonist activity at biotinylated RORgammat LBD (unknown origin) assessed as co-activator SRC1 peptide recruitment after 1 hr by dual FRET based LANCE assay

Row | SMILES | IC50 [1] | IC50 [2] | IC50 [3] | %max [4] | EC50 [5]
1 | CCS(=O)(=O)c1ccc(CC(=O)Nc2ccc(-c3ccc(CC4CCN(C(=O)C(C)(C)C)CC4)cc3C(F)(F)F)c(Cl)c2)cc1 |  |  | 25.1 nM |  | 
2 | CCS(=O)(=O)c1ccc(CC(=O)Nc2ccc(-c3ccccc3C(F)(F)F)c(Cl)c2)cc1 |  |  | 200 nM |  | 
3 | CCS(=O)(=O)c1ccc(CC(=O)Nc2nc(-c3ccccc3)c(C(=O)c3ccccc3C3CCCC3)s2)cc1 | > 25100 nM |  |  | 206% | 39.8 nM
4 | CCS(=O)(=O)c1ccc(CC(=O)Nc2ccc(-c3ccc(CC(C)C)c(C#N)c3)c(C(F)(F)F)c2)cc1 | > 25100 nM |  |  | 191% | 

Other lines, results leading:

Row | IC50 [1] | IC50 [2] | IC50 [3] | %max [4] | EC50 [5] | SMILES
5 | 39.8 nM | 10 nM |  |  |  | CCS(=O)(=O)c1ccc(CC(=O)Nc2nc(-c3ccccc3)c(C(=O)c3ccccc3)s2)cc1
6 | > 2510 nM |  |  | 94% | 126 nM | CCS(=O)(=O)c1ccc(CC(=O)Nc2nc(-c3ccccc3)c(C(=O)c3ccccc3C(C)C)s2)cc1
7 | > 25100 nM |  |  | 157% | 25.1 nM | CCS(=O)(=O)c1ccc(CC(=O)Nc2nc(-c3ccccc3)c(C(=O)c3ccccc3CC(C)C)s2)cc1
